Among the data in the supplement of paper PMC10307832 are relative viability values, retold here.

Compound in assay [1]: CC1=C(C(=NN1)C)CC2=C(C3=C(S2)N(C(=O)N(C3=O)C)CC(C)C)C(=O)N4C[C@@H](CO4)O + NC(=O)Nc1cc(-c2cccc(F)c2)sc1C(=O)N[C@H]1CCCNC1 [AZD7762] (partner 0.2 µM)
The experiment in a line: relative viability (nuclei count vs DMSO), 5 days (fraction); higher = more cells survive. In short, it runs like this:
(§1)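 Lung cancer cell lines, seeded in 1536-well plates, were treated the following day by pin tool with a single drug or with five library-drug doses (not always all listed) in √10 steps on top of a fixed anchor-drug dose. Cells were fixed and nuclei stained in one step after 5 days, and nuclei were counted. Relative viability is the nuclei count for treated wells divided by that for vehicle wells, reported as medians of duplicate plates.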

Compound in assay [2]: CC1=C(C(=NN1)C)CC2=C(C3=C(S2)N(C(=O)N(C3=O)C)CC(C)C)C(=O)N4C[C@@H](CO4)O + O=C(CCCCCCC(=O)Nc1ccccc1)NO [Vorinostat] (partner 1 µM)
Described as above. In a few lines:
as §1

Consider RERF-LC-KJ, for which the relative viability amounted to 1.01 in assay [1] (first compound 0.0025 µM); 1.16 in assay [1] (first compound 0.007906 µM); 0.888 in assay [1] (first compound 0.025 µM); 1.1 in assay [1] (first compound 0.07906 µM); 1.01 in assay [1] (first compound 0.25 µM); 0.738 in assay [2] (first compound 0.0025 µM). Besides, the relative viability was determined as 0.814 in assay [2] (first compound 0.007906 µM), 0.66 in assay [2] (first compound 0.025 µM), 0.696 in assay [2] (first compound 0.07906 µM) and 0.767 in assay [2] (first compound 0.25 µM).
Take SW 900: the relative viability stood at 0.604 in assay [1] (first compound 0.0025 µM); 0.706 in assay [1] (first compound 0.007906 µM); 0.628 in assay [1] (first compound 0.025 µM); 0.58 in assay [1] (first compound 0.07906 µM); 0.449 in assay [1] (first compound 0.25 µM); 0.558 in assay [2] (first compound 0.0025 µM). Moreover, the relative viability in assay [2] (first compound 0.007906 µM) is 0.55; in assay [2] (first compound 0.025 µM) it was 0.534; in assay [2] (first compound 0.07906 µM), 0.504; in assay [2] (first compound 0.25 µM), 0.445.
